Results published in patent US7897568B2, “Compositions for treatment of cancer” (priority 2006, dated 2011).
Where a SMILES comes first, the peptide text is derived from it. Where no end group is shown, it is not given here.

Assays:
[1] = test system: MCF7-SNCG cells; test: Mitotic index and apoptosis by DAPI staining after paclitaxel; format: cell-based; conditions: SNCG cells expressing EGFP-ANK versus pEGFP, paclitaxel 18 hours
Method: FIG. 7A through D show expression of EGFP-ANK disrupting the SNCG-mediated inhibition of mitotic checkpoint function as measured by microscopy and flow cytometry. The bar graphs show the expression of EGFP-ANK disrupting the SNCG-mediated inhibition of mitotic checkpoint function, using (FIG. 7A) DAPI and (FIG. 7B) anti-phospho-H^3 staining. For graphs of FIGS. 7A and 7B, the cells treated with 0.5 μM paclitaxel for 18 hours or untreated control cells were fixed with 4% paraformaldehyde for 20 minutes at room temperature. In both cases, the cells were then stained with 1 μg/ml of DAPI or 2 μg/ml anti-phospho-H3 primary and Texas Red goat anti-rabbit secondary antibodies (Invitrogen). Green fluorescent cells were identified for positive transfected cells. For each sample, 200-300 cells randomly chosen from 5 different views under a Nikon fluorescent microscope were scored for interphase, mitotic, or apoptotic based upon nuclei morphology. The data shown were derived from three separate transfections (p<0.01). […]
Two days after transfection, cells were exposed to paclitaxel for 18 hours and numbers of mitotic arrested and apoptotic cells were counted after DAPI staining. […] These cells were also probed with rabbit polyclonal anti-phospho-H^3 and the mitotic index was calculated according to the proportion of the number of H^3 stained EGFP positive cells to total EGFP positive cells (FIG. 7B). […]

[2] = molecular target: T1, GST-SNCG (Homo sapiens, UniProt O76070); test: Isothermal titration calorimetry of ANK peptide into GST-SNCG; conditions: ITC, first binding site
T1 construct: The SNCG coding region was amplified from the human cDNA clone; made in house; host or cells: Escherichia coli BL21 (DE3)
Method: The heat of dilution was measured by titrating ANK peptide in buffer alone. This was generally small and subtracted from each binding titration curve.
Titration calorimetry measurements were performed with a VP-ITC calorimeter (Microcal, Northampton, Mass.). The protein solution for ITC was dialyzed extensively overnight against 10 mM phosphate buffer, pH 7.0. The peptide solution was prepared by diluting with the buffer used for the protein dialysis. Injections (6 μl×50) of peptide (400 μM) were done by means of a rotating stirrer-syringe to the reaction cell, containing 1.43 ml of the 50 μM protein solution. The heat of dilution was determined to be negligible in separate titrations of the ligand into the buffer solution. Calorimetric data analysis was carried out with ORIGIN 5.0 software (MicroCal). Binding parameters such as the number of binding sites, the binding constant, and the binding enthalpy of bound ligand were determined by fitting the experimental binding isotherms.

[3] = molecular target: SNCG (Homo sapiens, UniProt O76070); test: ANS fluorescence of the SNCG-ANK peptide complex; format: binding; design: The SNCG coding region was amplified from the human cDNA clone; GST (N, cleaved yes); made in house; host or cells: Escherichia coli BL21 (DE3); conditions: SNCG 30 μM, ANK peptide 240 μM, 0.02 mg/mL ANS; versus peptide only
From the text: ANS fluorescence was also utilized to study the conformational properties of SNCG and the SNCG-ANK peptide interaction (See FIG. 2C). Changes in ANS fluorescence intensity are frequently used to monitor formation of partially folded intermediates during protein unfolding and refolding (Semisotnov et al. Biopolymers 1991 31:119-128), as well as to analyze the hydrophobic surfaces of proteins (Stryer, L. J. Mol. Biol. 1965 13:482-495). The interaction of ANS with solvent-exposed hydrophobic clusters is accompanied by a considerable increase in the dye fluorescence intensity and a pronounced blue shift of the fluorescence maximum. […] The addition of ANK peptide induced significant changes in ANS fluorescence properties, including a dramatic increase in the fluorescence intensity and a blue shift in λmax. […] Importantly, formation of the SNCG-ANK complex is accompanied by an approximate 20% decrease in ANS fluorescence intensity of only peptide which is affected by the presence of SNCG, confirming the interaction between SNCG and ANK peptide.

T1 sequence (O76070 whole entry): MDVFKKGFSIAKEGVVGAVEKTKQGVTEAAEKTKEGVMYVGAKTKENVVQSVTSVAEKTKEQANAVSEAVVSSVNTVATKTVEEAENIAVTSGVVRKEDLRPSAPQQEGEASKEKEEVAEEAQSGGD
SNCG, sequence (O76070 whole entry): as above

Compound | increase in the number of mitotic arrested cells [1] | ΔH [2] | decrease in ANS fluorescence intensity on formation of the SNCG-ANK complex [3]
EGFP-ANK: ANK peptide expressed as a fusion protein with its amino-terminal linked to EGFP protein, approximately 37 kDa ({EGFP}-KGNSALHVASQHGHLGCIQTLVRYGANVTMQNHG) | ~2 fold |  | 
CC[C@H](C)[C@H](NC(=O)[C@H](CS)NC(=O)CNC(=O)[C@H](CC(C)C)NC(=O)[C@H](Cc1c[nH]cn1)NC(=O)CNC(=O)[C@H](Cc1c[nH]cn1)NC(=O)[C@H](CCC(N)=O)NC(=O)[C@H](CO)NC(=O)[C@H](C)NC(=O)[C@@H](NC(=O)[C@H](Cc1c[nH]cn1)NC(=O)[C@H](CC(C)C)NC(=O)[C@H](C)NC(=O)[C@H](CO)NC(=O)[C@H](CC(N)=O)NC(=O)CNC(=O)[C@H](CCCCN)NC(C)=O)C(C)C)C(=O)N[C@@H](CCC(N)=O)C(=O)N[C@H](C(=O)N[C@@H](CC(C)C)C(=O)N[C@H](C(=O)N[C@@H](CCCNC(=N)N)C(=O)N[C@@H](Cc1ccc(O)cc1)C(=O)NCC(=O)N[C@@H](C)C(=O)N[C@@H](CC(N)=O)C(=O)N[C@H](C(=O)N[C@H](C(=O)N[C@@H](CCSC)C(=O)N[C@@H](CCC(N)=O)C(=O)N[C@@H](CC(N)=O)C(=O)N[C@@H](Cc1c[nH]cn1)C(=O)NCC(N)=O)[C@@H](C)O)C(C)C)C(C)C)[C@@H](C)O [ANK peptide] (Ac-KGNSALHVASQHGHLGCIQTLVRYGANVTMQNHG-NH2) |  | 2.174 ± 0.2 kcal/mol | ~20%
